Laboratory results reported in PubChem BioAssay AID256 (DTP/NCI, 2004).
“And” between values parts separate entries of the source, which are not always exact repeats. Equal values may be shown once. Inconclusive results and toxic doses are left out. How the source made its calls: active means survival T/C of 150% or more; inactive means T/C below 125% in these data.

System: CD2F1 mice, L1210 leukemia ip, survival T/C
Experiment: NCI In Vivo Anticancer Drug Screen. Data for tumor model L1210 Leukemia (intraperitoneal) in CD2F1 (CDF1) mice
Details: higher = longer survival
Summary of the method: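 Transplantable tumor in mice; compound-treated vs vehicle-treated groups. Read-out = treated/control ratio of the measured endpoint.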

[1] = endpoint: mean survival time, dose: 100.0 mg/kg/injection, schedule: Q01DX001 (ip), vehicle: saline
[2] = endpoint: mean survival time, dose: 200.0 mg/kg/injection, schedule: Q01DX001 (ip), vehicle: saline
[3] = endpoint: mean survival time, dose: 400.0 mg/kg/injection, schedule: Q01DX001 (ip), vehicle: saline
[4] = endpoint: mean survival time, dose: 100.0 mg/kg/injection, schedule: Q04DX003 (ip), vehicle: saline with Tween-80
[5] = endpoint: mean survival time, dose: 200.0 mg/kg/injection, schedule: Q04DX003 (ip), vehicle: saline with Tween-80
[6] = endpoint: mean survival time, dose: 400.0 mg/kg/injection, schedule: Q04DX003 (ip), vehicle: saline with Tween-80
[7] = endpoint: mean survival time, dose: 100.0 mg/kg/injection, schedule: Q04DX002 (ip), vehicle: saline with Tween-80
[8] = endpoint: mean survival time, dose: 50.0 mg/kg/injection, schedule: Q01DX009 (ip), vehicle: saline
[9] = endpoint: mean survival time, dose: 100.0 mg/kg/injection, schedule: Q01DX009 (ip), vehicle: saline
[10] = endpoint: mean survival time, dose: 200.0 mg/kg/injection, schedule: Q01DX009 (ip), vehicle: saline
[11] = endpoint: mean survival time, dose: 25.0 mg/kg/injection, schedule: Q01DX009 (ip), vehicle: water
[12] = endpoint: mean survival time, dose: 50.0 mg/kg/injection, schedule: Q01DX009 (ip), vehicle: water
[13] = endpoint: mean survival time, dose: 100.0 mg/kg/injection, schedule: Q01DX009 (ip), vehicle: water
[14] = endpoint: mean survival time, dose: 50.0 mg/kg/injection, schedule: Q01DX009 (ip), vehicle: saline with Tween-80
[15] = endpoint: mean survival time, dose: 200.0 mg/kg/injection, schedule: Q01DX009 (ip), vehicle: saline with Tween-80
[16] = endpoint: mean survival time, dose: 100.0 mg/kg/injection, schedule: Q01DX009 (ip), vehicle: saline with Tween-80

Measured: T/C

CS(=O)(=O)c1nc(Cl)c(Cl)c(C#N)c1Cl
inactive: endpoint: mean survival time, dose: 5.0 mg/kg/injection, schedule: Q01DX009 (ip), vehicle: saline with Tween-80 100 % of control | endpoint: mean survival time, dose: 10.0 mg/kg/injection, schedule: Q01DX009 (ip), vehicle: saline with Tween-80 95 % of control | endpoint: mean survival time, dose: 20.0 mg/kg/injection, schedule: Q01DX009 (ip), vehicle: saline with Tween-80 95 % of control

COc1cc(C=O)cc(O)c1O
inactive: endpoint: mean survival time, dose: 50.0 mg/kg/injection, schedule: Q01DX001 (ip), vehicle: saline 94 % of control | [1] 96 % of control | endpoint: mean survival time, dose: 100.0 mg/kg/injection, schedule: Q04DX003 (ip), vehicle: saline 95 % of control | [2] 91 % of control | endpoint: mean survival time, dose: 200.0 mg/kg/injection, schedule: Q04DX003 (ip), vehicle: saline 92 % of control | [3] 89 % of control | endpoint: mean survival time, dose: 400.0 mg/kg/injection, schedule: Q04DX003 (ip), vehicle: saline 92 % of control

CC(C)(C)N=C=N[N+](C)(C)Cc1ccccc1
inactive: endpoint: mean survival time, dose: 6.25 mg/kg/injection, schedule: Q01DX009 (ip), vehicle: saline 95 % of control | endpoint: mean survival time, dose: 12.5 mg/kg/injection, schedule: Q01DX009 (ip), vehicle: saline 98 % of control | endpoint: mean survival time, dose: 25.0 mg/kg/injection, schedule: Q01DX009 (ip), vehicle: saline 111 % of control

CC(C)(C)[Si](OP(=O)(O[Si](c1ccccc1)(c1ccccc1)C(C)(C)C)N(CCCl)CCCl)(c1ccccc1)c1ccccc1
inactive: endpoint: mean survival time, dose: 15.63 mg/kg/injection, schedule: Q01DX001 (ip), vehicle: distilled water + Tween-80 101 % of control | endpoint: mean survival time, dose: 31.25 mg/kg/injection, schedule: Q01DX001 (ip), vehicle: distilled water + Tween-80 95 % of control | endpoint: mean survival time, dose: 62.5 mg/kg/injection, schedule: Q01DX001 (ip), vehicle: distilled water + Tween-80 101 % of control | endpoint: mean survival time, dose: 125.0 mg/kg/injection, schedule: Q01DX001 (ip), vehicle: distilled water + Tween-80 98 % of control | endpoint: mean survival time, dose: 250.0 mg/kg/injection, schedule: Q01DX001 (ip), vehicle: distilled water + Tween-80 92 % of control | endpoint: mean survival time, dose: 500.0 mg/kg/injection, schedule: Q01DX001 (ip), vehicle: distilled water + Tween-80 103 % of control

O=C1C=CC(=O)c2c(O)cccc21
inactive: endpoint: mean survival time, dose: 3.13 mg/kg/injection, schedule: Q01DX009 (ip), vehicle: saline with Tween-80 94 % of control | endpoint: mean survival time, dose: 6.25 mg/kg/injection, schedule: Q01DX009 (ip), vehicle: saline with Tween-80 92 % of control | endpoint: mean survival time, dose: 12.5 mg/kg/injection, schedule: Q04DX003 (ip), vehicle: saline with Tween-80 88 % of control

O=C1CC(c2ccccc2)CC(=O)O1
inactive: [4] 102 % of control | [5] 100 % of control | [6] 92 % of control

CC(Cl)CN(CC(C)Cl)c1ccc2c(c1)Cc1cc(F)ccc1-2 (configuration not stated)
inactive: [4] 98 % of control | [5] 96 % of control | [6] 100 % of control

S=P12N3CCN1CCN2CC3
inactive: endpoint: mean survival time, dose: 7.7 mg/kg/injection, schedule: Q01DX001 (ip), vehicle: water 101 % of control | endpoint: mean survival time, dose: 10.9 mg/kg/injection, schedule: Q01DX001 (ip), vehicle: water 95 % of control | endpoint: mean survival time, dose: 15.7 mg/kg/injection, schedule: Q01DX001 (ip), vehicle: water 100 % of control | endpoint: mean survival time, dose: 22.4 mg/kg/injection, schedule: Q01DX001 (ip), vehicle: water 97 % of control | endpoint: mean survival time, dose: 32.0 mg/kg/injection, schedule: Q01DX001 (ip), vehicle: water 100 % of control | endpoint: mean survival time, dose: 64.0 mg/kg/injection, schedule: Q01DX001 (ip), vehicle: saline 95 % of control | endpoint: mean survival time, dose: 128.0 mg/kg/injection, schedule: Q01DX001 (ip), vehicle: saline 98 % of control

CC1(C)C(=O)C(Cl)C(c2ccccc2)=C1c1ccccc1 (configuration not stated)
inactive: [7] 101 % of control | endpoint: mean survival time, dose: 200.0 mg/kg/injection, schedule: Q04DX002 (ip), vehicle: saline with Tween-80 96 % of control | endpoint: mean survival time, dose: 400.0 mg/kg/injection, schedule: Q04DX002 (ip), vehicle: saline with Tween-80 101 % of control

Cc1cc(O)c(N=Nc2cccc(C(=O)O)c2)cc1C
inactive: [8] 107 % of control | [9] 96 % of control | [10] 103 % of control

N#CSc1ccc(Nc2ccc(SC#N)cc2)cc1
inactive: endpoint: mean survival time, dose: 12.5 mg/kg/injection, schedule: Q04DX003 (ip), vehicle: Klucel (hydroxypropylcellulose) (HPC) 113 % of control | endpoint: mean survival time, dose: 25.0 mg/kg/injection, schedule: Q04DX003 (ip), vehicle: Klucel (hydroxypropylcellulose) (HPC) 109 % of control | endpoint: mean survival time, dose: 50.0 mg/kg/injection, schedule: Q04DX003 (ip), vehicle: Klucel (hydroxypropylcellulose) (HPC) 107 % of control

COc1cc2ccc(/C=C/C(=O)c3ccc4c(c3)OCO4)cc2cc1OC
inactive: [11] 98 % of control | [12] 91 % of control | [13] 88 % of control | endpoint: mean survival time, dose: 200.0 mg/kg/injection, schedule: Q01DX009 (ip), vehicle: water 90 % of control | endpoint: mean survival time, dose: 400.0 mg/kg/injection, schedule: Q01DX009 (ip), vehicle: water 88 % of control

[Cl][Dy]([Cl])[Cl]
inactive: [14] 89 % of control | [15] 90 % of control

O=C1NC(=O)C([N+](=O)[O-])=C(O)C1=O
inactive: [8] 102 % of control | [9] 93 % of control | [10] 90 % of control

CC(O)CN(C)C (configuration not stated)
inactive: [1] 98 % of control | [2] 103 % of control | [3] 103 % of control

C=C(Br)CNC(=O)NCC(=C)Br
inactive: endpoint: mean survival time, dose: 100.0 mg/kg/injection, schedule: Q01DX001 (ip), vehicle: saline with Tween-80 91 % of control | endpoint: mean survival time, dose: 200.0 mg/kg/injection, schedule: Q01DX001 (ip), vehicle: saline with Tween-80 96 % of control | endpoint: mean survival time, dose: 400.0 mg/kg/injection, schedule: Q01DX001 (ip), vehicle: saline with Tween-80 101 % of control

OCC1OC(n2cnc3c(SSc4ncnc5c4ncn5C4CC(O)C(CO)O4)ncnc32)CC1O (configuration not stated)
inactive: endpoint: mean survival time, dose: 178.0 mg/kg/injection, schedule: Q01DX001 (ip), vehicle: saline 114 % of control

CC(=O)Oc1ccc(/C=C2\CCOC2=O)cc1
inactive: endpoint: mean survival time, dose: 7.82 mg/kg/injection, schedule: Q01DX005 (ip), vehicle: Klucel (hydroxypropylcellulose) (HPC) 112 % of control | endpoint: mean survival time, dose: 15.63 mg/kg/injection, schedule: Q01DX005 (ip), vehicle: Klucel (hydroxypropylcellulose) (HPC) 101 % of control | endpoint: mean survival time, dose: 31.25 mg/kg/injection, schedule: Q01DX005 (ip), vehicle: Klucel (hydroxypropylcellulose) (HPC) 106 % of control | endpoint: mean survival time, dose: 62.5 mg/kg/injection, schedule: Q01DX005 (ip), vehicle: Klucel (hydroxypropylcellulose) (HPC) 107 % of control | endpoint: mean survival time, dose: 125.0 mg/kg/injection, schedule: Q01DX005 (ip), vehicle: Klucel (hydroxypropylcellulose) (HPC) 109 % of control | endpoint: mean survival time, dose: 250.0 mg/kg/injection, schedule: Q01DX005 (ip), vehicle: Klucel (hydroxypropylcellulose) (HPC) 109 % of control

CC/C=C(\C)CC(C)O (configuration not stated)
inactive: endpoint: mean survival time, dose: 25.0 mg/kg/injection, schedule: Q04DX002 (ip), vehicle: saline with Tween-80 93 % of control | endpoint: mean survival time, dose: 50.0 mg/kg/injection, schedule: Q04DX002 (ip), vehicle: saline with Tween-80 89 % of control | [7] 89 % of control

CC(C)C1=CC23CCC4C(C)(C(=O)O)CCCC4(C)C2CC13 (configuration not stated)
inactive: [4] 103 % of control | [5] 97 % of control | [6] 97 % of control

CSc1nc(NC2OCC(O)C(O)C2O)c(Br)c(=O)[nH]1 (configuration not stated)
inactive: endpoint: median survival time, dose: 12.5 mg/kg/injection, schedule: Q01DX005 (ip), vehicle: saline with Tween-80 101 % of control | endpoint: median survival time, dose: 25.0 mg/kg/injection, schedule: Q01DX005 (ip), vehicle: saline with Tween-80 101 % of control | endpoint: median survival time, dose: 50.0 mg/kg/injection, schedule: Q01DX005 (ip), vehicle: saline with Tween-80 101 % of control | endpoint: median survival time, dose: 100.0 mg/kg/injection, schedule: Q01DX005 (ip), vehicle: saline with Tween-80 101 % of control | endpoint: median survival time, dose: 200.0 mg/kg/injection, schedule: Q01DX005 (ip), vehicle: saline with Tween-80 101 % of control

COc1cc2cnccc2cc1O
inactive: [11] 95 % of control | [12] 101 % of control | [13] 96 % of control

O=C1CC(c2ccccc2)C(c2ccccc2)=C1Cl (configuration not stated)
inactive: [16] 94 % of control | [15] 98 % of control | endpoint: mean survival time, dose: 400.0 mg/kg/injection, schedule: Q01DX009 (ip), vehicle: saline with Tween-80 96 % of control

CC1C2C=CC(C2)C1C(=O)O (configuration not stated)
inactive: [14] 93 % of control | [16] 96 % of control and 98 % of control | [15] 100 % of control and 87 % of control
